Reference: ChEMBL document CHEMBL3045422, “Synthesis, characterization, and antimicrobial screening of some Mannich base sydnone derivatives” (2013)
Converted amounts (≈) assume the structure as drawn.

Key:
[1] = tested on: Candida albicans
[2] = tested on: Candida albicans; remark: listed apart in the source
[3] = tested on: Candida albicans; test: microbe, parasite or virus in culture; assay type: functional
[4] = tested on: Pseudomonas aeruginosa; test: microbe, parasite or virus in culture; assay type: functional
Description: Antibacterial activity against Pseudomonas aeruginosa

[5] = tested on: Escherichia coli; test: microbe, parasite or virus in culture; assay type: functional
Description: Antibacterial activity against Escherichia coli

[6] = tested on: Staphylococcus aureus; test: microbe, parasite or virus in culture; assay type: functional
Description: Antibacterial activity against Staphylococcus aureus

[7] = tested on: Candida albicans; test: Antifungal activity against Candida albicans at 300 ug/ml; assay type: functional; details: read-out: IZ
[8] = tested on: Pseudomonas aeruginosa; test: microbe, parasite or virus in culture; assay type: functional; details: read-out: IZ
Description: Antibacterial activity against Pseudomonas aeruginosa at 300 ug/ml

[9] = tested on: Escherichia coli; test: microbe, parasite or virus in culture; assay type: functional; details: read-out: IZ
Description: Antibacterial activity against Escherichia coli at 300 ug/ml

[10] = tested on: Bacillus subtilis; test: microbe, parasite or virus in culture; assay type: functional; details: read-out: IZ
Description: Antibacterial activity against Bacillus subtilis at 300 ug/ml

[11] = tested on: Staphylococcus aureus; test: microbe, parasite or virus in culture; assay type: functional; details: read-out: IZ
Description: Antibacterial activity against Staphylococcus aureus at 300 ug/ml

[12] = tested on: Bacillus subtilis; test: microbe, parasite or virus in culture; assay type: functional
Description: Antibacterial activity against Bacillus subtilis

Compound | MIC [1] | IZ [2] | MIC [3] | MIC [4] | MIC [5] | MIC [6] | zone of inhibition at 300 µg/mL [7] | zone of inhibition at 300 µg/mL [8] | zone of inhibition at 300 µg/mL [9] | zone of inhibition at 300 µg/mL [10] | zone of inhibition at 300 µg/mL [11] | MIC [12]
NYSTATIN | 100 µg/mL | 28 mm |  |  |  |  |  |  |  |  |  | 
COc1ccc(-[n+]2noc([O-])c2Cn2c(-c3ccc(Cl)cc3Cl)nc3ccccc32)cc1 |  |  | 200 µg/mL (≈ 428 µM) | 300 µg/mL (≈ 642 µM) | 300 µg/mL (≈ 642 µM) | 500 µg/mL (≈ 1070 µM) | 16 mm | 12 mm | 12 mm | 10 mm | 10 mm | 500 µg/mL (≈ 1070 µM)
CCOc1ccc(NCc2c([O-])on[n+]2-c2ccc(OC)cc2)cc1 |  |  | 200 µg/mL (≈ 586 µM) | 100 µg/mL (≈ 293 µM) | 200 µg/mL (≈ 586 µM) | 40 µg/mL (≈ 117 µM) | 16 mm | 15 mm | 13 mm | 16 mm | 17 mm | 80 µg/mL (≈ 234 µM)
COc1ccc(-[n+]2noc([O-])c2CNc2ccc([N+](=O)[O-])cc2)cc1 |  |  | 200 µg/mL (≈ 584 µM) | 200 µg/mL (≈ 584 µM) | 200 µg/mL (≈ 584 µM) | 500 µg/mL (≈ 1460 µM) | 14 mm | 14 mm | 14 mm | 12 mm | 10 mm | 200 µg/mL (≈ 584 µM)
COc1ccc(-[n+]2noc([O-])c2Cn2c(-c3ccc(OC)c([N+](=O)[O-])c3)nc3ccccc32)cc1 |  |  | 200 µg/mL (≈ 422 µM) | 200 µg/mL (≈ 422 µM) | 200 µg/mL (≈ 422 µM) | 500 µg/mL (≈ 1060 µM) | 16 mm | 16 mm | 14 mm | 10 mm | 10 mm | 500 µg/mL (≈ 1060 µM)
COc1ccc(-[n+]2noc([O-])c2Cn2c(-c3ccc(Cl)c(Cl)c3)nc3ccccc32)cc1 |  |  | 200 µg/mL (≈ 428 µM) | 300 µg/mL (≈ 642 µM) | 300 µg/mL (≈ 642 µM) | 300 µg/mL (≈ 642 µM) | 15 mm | 14 mm | 13 mm | 12 mm | 11 mm | 200 µg/mL (≈ 428 µM)
COc1ccc(-[n+]2noc([O-])c2Cn2c(-c3cccc(Br)c3)nc3ccccc32)cc1 |  |  | 200 µg/mL (≈ 419 µM) | 500 µg/mL (≈ 1050 µM) | 300 µg/mL (≈ 629 µM) | 500 µg/mL (≈ 1050 µM) | 14 mm | 10 mm | 12 mm | 10 mm | 10 mm | 500 µg/mL (≈ 1050 µM)
COc1ccc(-[n+]2noc([O-])c2Cn2c(-c3ccc(Cl)cc3)nc3ccccc32)cc1 |  |  | 200 µg/mL (≈ 462 µM) | 500 µg/mL (≈ 1160 µM) | 200 µg/mL (≈ 462 µM) | 300 µg/mL (≈ 693 µM) | 14 mm | 10 mm | 15 mm | 12 mm | 12 mm | 300 µg/mL (≈ 693 µM)
COc1ccc(-[n+]2noc([O-])c2CNc2nc3ccc(OC)cc3s2)cc1 |  |  | 100 µg/mL (≈ 260 µM) | 200 µg/mL (≈ 520 µM) | 200 µg/mL (≈ 520 µM) | 100 µg/mL (≈ 260 µM) | 15 mm | 14 mm | 13 mm | 12 mm | 14 mm | 200 µg/mL (≈ 520 µM)
